According to ChEMBL document CHEMBL3638383, “Pyrimidone derivatives” (2015):

Molecular target: Glycogen synthase kinase-3 beta splice variant X1 (Bos taurus, UniProt A0A059UE90)
Experiment: Inhibition Assay: A mixture containing 100 mM MES-sodium hydroxide (pH 6.5), 1 mM magnesium acetate, 0.5 mM EGTA, 5 mM, β-mercaptoethanol, 0.02% Tween 20, 10% glycerol, 12 µg/ml P-GS1, 41.7 µM [γ-^32P] ATP (68 kBq/ml), bovine cerebral TPK1 and a compound shown in Table (a final mixture contained 1.7% DMSO deriving from a solution of a test compound prepared in the presence of 10% DMSO) was used as a reaction system. The phosphorylation was started by adding ATP, and the reaction was conducted at 25° C. for 2 hours, and then stopped by adding 21% perchloric acid on ice cooling. The reaction mixture was centrifuged at 12,000 rpm for 5 minutes and adsorbed on P81 paper (Whatmann), and then the paper was washed four times with 75 mM phosphoric acid, three times with water and once with acetone. The paper was dried, and the residual radioactivity was measured using a liquid scintillation counter.

Row | Structure (SMILES) | IC50 [nM]
1 | Cn1c(OCC(=O)c2ccc(Br)cc2)nc(-c2ccncc2)cc1=O | 167
2 | Cn1c(OCC(=O)c2ccc(Br)cc2)nc(-c2ccncc2F)cc1=O | 27
3 | Cn1c(OCC(=O)c2ccc(Br)cc2)nc(-c2ccncn2)cc1=O | 108
4 | Cn1c(OCC(=O)c2ccccc2)nc(-c2ccncn2)cc1=O | 20
